Laboratory results as given in patent US20260049071A1, “PROTEIN TYROSINE KINASE INHIBITOR AND MEDICAL USE THEREOF” (BEYANG THERAPEUTICS CO., LTD., priority 2022, published 2026).

Tests used:
melanin = test: Binding capacity of compounds to melanin; type: in vitro ADME; details: Sepia officinalis (cuttlefish), melanin suspension (1 mg/mL); 1 mg/mL melanin suspension in PBS pH 7.4, 2 μM compound, 2 h at 37° C.; read-out: Fu % (percentage of free drug, not bound to melanin)
Source text: Pigmented eye tissues contain melanin in intracellular melanosomes. Drugs bind to melanin to varying degrees, ranging from non-binding to extensive binding. Therefore, melanin binding is an important feature that affects drug delivery and biodistribution in the eye. The binding capacity of a compound to the melanin must be considered in the development of ophthalmic drugs.
Melanin was derived from the melanin of cuttlefish (Sepia officinalis) and was commercially available from Sigma Aldrich (St Louis, MO).
First, prepare 1 mg/mL melanin suspension with PBS (pH 7.4). As a washing step for the matrix, centrifuge the suspended particles for 5 min at 3000 rpm. Resuspend the resulting particles in a fresh PBS buffer, heat to 37° C. over continuous shaking and incubate it for 1 h. Accurately pipette 2 μL of the test stock solution (0.1 mM) into 98 μL of melanin suspension (1 mg/mL) to achieve a final incubation concentration of 2 μM. Similarly, accurately pipette 2 μL of the stock solution (0.1 mM) to 98 μL of PBS buffer (containing 0.1% BSA) as a blank control sample. Incubate the samples in a shaker (80-90 rpm) for 2 h at 37° C. Then, centrifuge the samples at room temperature. Pipette 50 μL of the supernatant and add 50 μL of precipitant (containing an internal standard). After protein precipitation of all the above samples, centrifuge the samples to collect the supernatants, dilute the supernatants with water (if necessary) and inject them for analysis. At the same time, measure the positive controls, including the high-binding compounds Sunitinib and chloroquine and the low-binding compound celecoxib. Establish an LC-MS/MS method for determining compound concentrations, and calibrate the peak area ratio of analyte/internal standard (Analyte/AIS) in the measured sample by the dilution factor to take it as an alternative concentration for the sample for data processing. The binding rate (Fh) of a compound in melanin was calculated as: […]
Ctest was the concentration of the compound in the melanin-incubated sample or the peak area ratio of the test compound to the internal standard. Ccontrol was the concentration of the compound in the blank control sample or the peak area ratio of the test compound to the internal standard. Percentage of free drug (Fu %)=100−Fb The binding rates of the compounds of the present invention to melanin are shown in the table below: […]

FLT1 (VEGFR1) = FLT1 (VEGFR1) (Homo sapiens (Human), UniProt P17948); test: Kinase inhibition, Mobility Shift Assay (VEGFR1); type: biochemical
Chain of FLT1 (VEGFR1) (P17948 27-1338): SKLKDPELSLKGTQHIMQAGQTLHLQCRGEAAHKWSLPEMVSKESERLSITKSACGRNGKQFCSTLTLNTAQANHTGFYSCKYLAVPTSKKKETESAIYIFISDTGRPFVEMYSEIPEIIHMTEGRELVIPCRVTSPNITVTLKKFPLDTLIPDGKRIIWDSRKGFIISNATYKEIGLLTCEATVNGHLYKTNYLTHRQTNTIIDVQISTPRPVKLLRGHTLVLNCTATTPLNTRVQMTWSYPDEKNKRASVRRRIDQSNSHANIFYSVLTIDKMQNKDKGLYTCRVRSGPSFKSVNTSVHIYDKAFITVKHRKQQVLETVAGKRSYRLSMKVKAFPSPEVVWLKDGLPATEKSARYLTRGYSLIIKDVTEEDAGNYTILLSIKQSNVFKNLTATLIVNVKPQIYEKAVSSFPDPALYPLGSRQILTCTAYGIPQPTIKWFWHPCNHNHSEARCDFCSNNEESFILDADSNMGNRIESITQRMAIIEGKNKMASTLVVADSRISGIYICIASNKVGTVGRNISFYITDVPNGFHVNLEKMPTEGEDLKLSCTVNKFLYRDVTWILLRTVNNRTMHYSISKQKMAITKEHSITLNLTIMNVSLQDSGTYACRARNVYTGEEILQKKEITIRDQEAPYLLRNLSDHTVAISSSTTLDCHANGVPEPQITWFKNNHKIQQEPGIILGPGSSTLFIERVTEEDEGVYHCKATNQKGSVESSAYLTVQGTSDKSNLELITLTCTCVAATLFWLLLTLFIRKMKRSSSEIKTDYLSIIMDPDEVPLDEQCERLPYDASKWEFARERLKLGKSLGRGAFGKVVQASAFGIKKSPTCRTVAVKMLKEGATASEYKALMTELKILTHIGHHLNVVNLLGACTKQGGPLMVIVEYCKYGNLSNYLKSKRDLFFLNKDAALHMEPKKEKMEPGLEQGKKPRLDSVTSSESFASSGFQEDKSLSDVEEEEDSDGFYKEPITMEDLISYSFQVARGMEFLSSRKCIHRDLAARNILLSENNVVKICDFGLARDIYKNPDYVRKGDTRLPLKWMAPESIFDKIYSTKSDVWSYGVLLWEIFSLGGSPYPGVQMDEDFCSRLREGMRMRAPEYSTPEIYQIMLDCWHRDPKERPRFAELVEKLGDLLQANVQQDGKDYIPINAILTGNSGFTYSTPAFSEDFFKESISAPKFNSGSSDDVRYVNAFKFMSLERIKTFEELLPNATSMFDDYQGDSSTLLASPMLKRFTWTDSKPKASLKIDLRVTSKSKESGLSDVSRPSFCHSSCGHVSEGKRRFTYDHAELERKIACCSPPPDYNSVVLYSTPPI
Experimental: (§1) This assay directly monitored the ability of compounds to inhibit kinase phosphorylation by measuring non-phosphorylated and phosphorylated substrates in kinase reactions by using Mobility Shift Assays/IMAP™ analysis.
(§2) Add the kinase and DTT to 1× kinase buffer to form a 2.5× kinase solution; transfer 10 μL of 2.5× kinase solution to a 384-well reaction plate and add 1× kinase buffer to negative control wells. Incubate the plate for 10 min at room temperature; add FAM-labeled peptides, MgCl2, ATP and other reagents to 1× kinase buffer to form a 2.5× substrate solution; transfer 10 μL of the above 2.5× substrate solution to the 384-well reaction plate; incubate the plate at 28° C. for different times, and add 25 μL of stop solution to the 384-well reaction plate to stop the reaction. Read the conversion ratio data on CaliperEZ Reader II. Convert conversion rates into inhibition ratio data.
(§3) “Min” indicates the readout of the control well without the addition of kinase; and “Max” indicates the readout of the control well with the addition of DMSO. Fit IC50 values with XLFit excel add-in version 5.4.0.8.
(§4) X indicates the log value of compound concentration, and Y indicates the inhibition ratio (% inhibition).

KDR (VEGFR2) = KDR (VEGFR2) (Homo sapiens (Human), UniProt P35968); test: Kinase inhibition, Mobility Shift Assay (VEGFR2); type: biochemical
Chain of KDR (VEGFR2) (P35968 790-1356): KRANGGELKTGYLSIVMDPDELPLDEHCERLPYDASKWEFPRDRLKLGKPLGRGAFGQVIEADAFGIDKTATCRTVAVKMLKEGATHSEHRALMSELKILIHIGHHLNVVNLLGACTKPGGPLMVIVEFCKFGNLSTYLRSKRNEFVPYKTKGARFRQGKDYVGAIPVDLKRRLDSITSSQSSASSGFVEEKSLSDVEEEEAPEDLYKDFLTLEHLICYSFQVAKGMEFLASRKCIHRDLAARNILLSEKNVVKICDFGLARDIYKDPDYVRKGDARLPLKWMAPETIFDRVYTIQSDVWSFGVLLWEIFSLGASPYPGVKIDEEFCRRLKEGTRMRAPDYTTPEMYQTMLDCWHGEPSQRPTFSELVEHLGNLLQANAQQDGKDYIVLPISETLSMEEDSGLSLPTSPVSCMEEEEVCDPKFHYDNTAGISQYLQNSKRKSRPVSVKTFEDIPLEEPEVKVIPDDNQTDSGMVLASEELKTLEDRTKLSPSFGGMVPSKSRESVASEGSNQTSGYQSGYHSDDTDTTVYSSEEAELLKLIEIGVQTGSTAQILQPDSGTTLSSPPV
Experimental: as §1, §2, §3, §4

FLT4 (VEGFR3) = FLT4 (VEGFR3) (Homo sapiens (Human), UniProt P35916); test: Kinase inhibition, Mobility Shift Assay (VEGFR3); type: biochemical
Chain of FLT4 (VEGFR3) (P35916 25-1363): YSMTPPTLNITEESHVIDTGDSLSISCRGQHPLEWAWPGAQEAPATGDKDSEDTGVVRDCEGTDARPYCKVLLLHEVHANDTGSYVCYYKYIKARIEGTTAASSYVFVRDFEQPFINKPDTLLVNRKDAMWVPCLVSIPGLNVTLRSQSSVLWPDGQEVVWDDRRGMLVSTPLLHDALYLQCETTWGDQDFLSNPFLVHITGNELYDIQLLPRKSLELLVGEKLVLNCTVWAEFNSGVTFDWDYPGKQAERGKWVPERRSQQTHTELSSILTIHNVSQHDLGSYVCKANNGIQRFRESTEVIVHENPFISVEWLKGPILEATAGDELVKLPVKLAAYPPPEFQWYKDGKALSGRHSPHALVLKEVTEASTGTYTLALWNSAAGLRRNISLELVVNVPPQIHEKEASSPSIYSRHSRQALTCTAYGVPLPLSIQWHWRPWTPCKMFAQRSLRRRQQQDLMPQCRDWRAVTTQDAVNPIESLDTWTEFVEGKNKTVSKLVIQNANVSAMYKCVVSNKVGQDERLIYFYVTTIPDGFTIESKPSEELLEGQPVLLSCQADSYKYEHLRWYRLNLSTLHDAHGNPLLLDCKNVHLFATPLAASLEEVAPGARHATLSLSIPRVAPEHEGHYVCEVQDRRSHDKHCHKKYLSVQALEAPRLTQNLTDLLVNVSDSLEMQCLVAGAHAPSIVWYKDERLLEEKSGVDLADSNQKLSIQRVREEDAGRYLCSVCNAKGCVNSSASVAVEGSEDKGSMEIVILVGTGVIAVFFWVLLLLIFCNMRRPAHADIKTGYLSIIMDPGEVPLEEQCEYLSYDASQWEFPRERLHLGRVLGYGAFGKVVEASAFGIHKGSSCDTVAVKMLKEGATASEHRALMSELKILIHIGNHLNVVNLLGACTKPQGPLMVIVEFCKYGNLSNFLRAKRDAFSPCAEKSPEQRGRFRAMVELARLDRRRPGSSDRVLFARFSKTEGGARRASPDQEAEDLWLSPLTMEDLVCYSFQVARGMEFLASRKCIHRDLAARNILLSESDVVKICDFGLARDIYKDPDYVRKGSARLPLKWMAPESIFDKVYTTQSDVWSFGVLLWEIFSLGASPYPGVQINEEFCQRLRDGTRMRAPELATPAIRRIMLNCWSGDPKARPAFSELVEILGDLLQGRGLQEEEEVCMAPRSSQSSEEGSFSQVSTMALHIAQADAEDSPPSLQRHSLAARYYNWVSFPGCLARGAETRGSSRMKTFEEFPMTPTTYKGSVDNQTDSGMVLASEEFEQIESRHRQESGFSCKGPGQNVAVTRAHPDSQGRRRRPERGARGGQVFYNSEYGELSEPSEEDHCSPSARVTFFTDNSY
Experimental: as §1, §2, §3, §4

EGFR = EGFR (Homo sapiens (Human), UniProt P00533); test: Kinase inhibition, Mobility Shift Assay (EGFR); type: biochemical
Chain of EGFR (P00533 25-1210): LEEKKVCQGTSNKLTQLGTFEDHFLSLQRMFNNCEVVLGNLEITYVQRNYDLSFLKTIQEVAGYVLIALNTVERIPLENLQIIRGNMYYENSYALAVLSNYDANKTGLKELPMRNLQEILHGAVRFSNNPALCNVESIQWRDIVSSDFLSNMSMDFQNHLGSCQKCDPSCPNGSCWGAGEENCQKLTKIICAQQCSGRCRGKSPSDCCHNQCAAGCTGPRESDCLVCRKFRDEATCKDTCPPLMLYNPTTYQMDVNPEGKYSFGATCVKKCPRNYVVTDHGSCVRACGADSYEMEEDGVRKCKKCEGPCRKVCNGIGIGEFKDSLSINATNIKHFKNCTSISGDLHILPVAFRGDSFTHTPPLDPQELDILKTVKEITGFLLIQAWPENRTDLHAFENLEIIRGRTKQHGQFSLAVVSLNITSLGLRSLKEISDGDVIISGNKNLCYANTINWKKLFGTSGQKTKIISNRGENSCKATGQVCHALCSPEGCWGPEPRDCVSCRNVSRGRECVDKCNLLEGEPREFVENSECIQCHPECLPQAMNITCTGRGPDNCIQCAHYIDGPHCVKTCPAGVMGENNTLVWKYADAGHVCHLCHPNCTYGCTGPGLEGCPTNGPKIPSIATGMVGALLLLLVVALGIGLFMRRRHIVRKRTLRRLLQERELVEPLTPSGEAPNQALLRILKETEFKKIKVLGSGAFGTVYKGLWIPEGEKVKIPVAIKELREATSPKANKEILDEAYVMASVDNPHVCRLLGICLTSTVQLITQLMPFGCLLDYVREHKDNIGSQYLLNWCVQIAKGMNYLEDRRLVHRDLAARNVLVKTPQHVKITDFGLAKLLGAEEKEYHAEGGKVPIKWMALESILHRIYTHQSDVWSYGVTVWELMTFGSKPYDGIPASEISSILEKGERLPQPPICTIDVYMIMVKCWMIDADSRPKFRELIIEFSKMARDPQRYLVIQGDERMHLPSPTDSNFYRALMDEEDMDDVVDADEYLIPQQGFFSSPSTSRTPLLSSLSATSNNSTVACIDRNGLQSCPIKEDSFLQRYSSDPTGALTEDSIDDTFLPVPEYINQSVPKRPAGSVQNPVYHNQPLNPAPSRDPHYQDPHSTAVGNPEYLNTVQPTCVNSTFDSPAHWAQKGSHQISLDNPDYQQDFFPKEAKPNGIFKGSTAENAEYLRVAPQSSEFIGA
Experimental: as §1, §2, §3, §4

Structure (SMILES)	fraction unbound at 2 h, 2 μM (melanin)	IC50 (FLT1 (VEGFR1))	IC50 (KDR (VEGFR2))	IC50 (FLT4 (VEGFR3))	IC50 (EGFR)
CNC(=O)c1ccccc1Sc1ccc2c(/C=C/c3ccc(OCC4CCCN4C)cn3)n[nH]c2c1 (centres unmarked) [Compound I-2, N-methyl-2-({3-[(E)-2-{5-[(1-methylpyrrolidin-2-yl)methoxy]pyridin-2-yl}vinyl]-1H-indazol-6-yl}thio)benzamide]	0.01 to 0.05	≤ 1 nM	≤ 1 nM	–	–
CNC(=O)c1ccccc1Sc1ccc2c(/C=C/c3ccc(OCC4CCNC4)cn3)n[nH]c2c1 (centres unmarked) [Compound I-7]	> 0.05	≤ 1 nM	–	–	–
CNC(=O)c1ccccc1Sc1ccc2c(/C=C/c3ccc(O)cn3)n[nH]c2c1 [Compound I-10, 2-({3-[(E)-2-(5-hydroxypyridin-2-yl)vinyl]-1H-indazol-6-yl}thio)-N-methylbenzamide]	–	1 to 10 nM	1 to 10 nM	≤ 1 nM	6000 to 60000 nM
CNC(=O)c1ccccc1Sc1ccc2c(C#Cc3cccc(OCCN4CCCC4)n3)n[nH]c2c1 [Compound I-24, N-methyl-2-{[3-(2-{6-[2-(pyrrolidin-1-yl)ethoxy]pyridin-2-yl}ethynyl)-1H-indazol-6-yl]thio}benzamide]	–	10 to 100 nM	10 to 100 nM	10 to 100 nM	6000 to 60000 nM
CNC(=O)c1ccccc1Sc1ccn2c(/C=C/c3ccccn3)ncc2c1 [Compound I-27, N-methyl-2-({3-[(E)-2-(pyridin-2-yl)vinyl]imidazo[1,5-a]pyridin-7-yl}thio)benzamide]	–	> 100 nM	> 100 nM	> 100 nM	6000 to 60000 nM
CNC(=O)c1ccccc1Sc1ccc2c(Nc3ccc(OCCN4CCCC4)cn3)n[nH]c2c1 [Compound I-30, N-methyl-2-{[3-({5-[2-(pyrrolidin-1-yl)ethoxy]pyridin-2-yl}amino)-1H-indazol-6-yl]thio}benzamide]	–	> 100 nM	> 100 nM	> 100 nM	6000 to 60000 nM
CNC(=O)c1ccccc1Sc1ccc2c(/C=C/c3ccc(OC[C@H]4CCN(C)C4)cn3)n[nH]c2c1 [Compound I-37, N-methyl-2-({3-[(E)-2-(5-{[(3S)-1-methylpyrrolidin-3-yl]methoxy}pyridin-2-yl)vinyl]-1H-indazol-6-yl}thio)benzamide]	0.01 to 0.05	≤ 1 nM	≤ 1 nM	–	–
O=C(NC1CC1)c1cccc(F)c1Sc1ccc2c(/C=C/c3cnn(CCCN4CCCC4)c3)n[nH]c2c1 [Compound I-44, N-cyclopropyl-3-fluoro-2-({3-[(E)-2-{1-[3-(pyrrolidin-1-yl)propyl]-1H-pyrazol-4-yl}vinyl]-1H-indazol-6-yl}thio)benzamide]	0.01 to 0.05	–	–	–	–
CN(C)CCOc1ccc(/C=C/c2n[nH]c3cc(Sc4ccccc4C(=O)NC4CC4)ccc23)nc1 [Compound I-51, N-cyclopropyl-2-({3-[(E)-2-{5-[2-(dimethylamino)ethoxy]pyridin-2-yl}vinyl]-1H-indazol-6-yl}thio)benzamide]	0.01 to 0.05	–	–	–	–
CCN(C)CCOc1ccc(/C=C/c2n[nH]c3cc(Sc4ccccc4C(=O)NC4CC4)ccc23)nc1 [Compound I-52, N-cyclopropyl-2-({3-[(E)-2-{5-[2-(diethylamino)ethoxy]pyridin-2-yl}vinyl]-1H-indazol-6-yl}thio)benzoyl]	> 0.05	–	–	–	–
O=C(NC1CC1)c1ccccc1Sc1ccc2c(/C=C/c3ccc(OCCN4CCCCC4)cn3)n[nH]c2c1 [Compound I-53, N-cyclopropyl-2-({3-[(E)-2-{5-[2-(piperidin-1-yl)ethoxy]pyridin-2-yl}vinyl]-1H-indazol-6-yl}thio)benzamide]	> 0.05	–	–	–	–
CCNC(=O)c1ccccc1Sc1ccc2c(/C=C/c3ccc(CN4CCCC4)cn3)n[nH]c2c1 [Compound I-73, N-ethyl-2-({3-[(E)-2-{5-[(pyrrolidin-1-yl)methyl]pyridin-2-yl}vinyl]-1H-indazol-6-yl}thio)benzamide]	0.01 to 0.05	–	1 to 10 nM	–	6000 to 60000 nM
CNC(=O)c1cccc(F)c1Sc1ccc2c(/C=C/c3cnn(CCCN4CCCC4)c3)n[nH]c2c1 [Compound I-76, 3-fluoro-N-methyl-2-({3-[(E)-2-{1-[3-(pyrrolidin-1-yl)propyl]-1H-pyrazol-4-yl}vinyl]-1H-indazol-6-yl}thio)benzamide]	> 0.05	–	1 to 10 nM	–	600 to 6000 nM
O=C(NC1CC1)c1ccc(F)cc1Sc1ccc2c(/C=C/c3ccc(CN4CCCC4)cn3)n[nH]c2c1 [Compound I-79, N-cyclopropyl-4-fluoro-2-({3-[(E)-2-{5-[(pyrrolidin-1-yl)methyl]pyridin-2-yl}vinyl]-1H-indazol-6-yl}thio)benzamide]	> 0.05	–	≤ 1 nM	–	6000 to 60000 nM
O=C(NC1CC1)c1ccccc1Nc1ccc2c(/C=C/c3ccc(CN4CCCC4)cn3)n[nH]c2c1 [Compound I-82, N-cyclopropyl-2-({3-[(E)-2-{5-[(pyrrolidin-1-yl)methyl]pyridin-2-yl}vinyl]-1H-indazol-6-yl}amino)benzamide]	0.01 to 0.05	–	≤ 1 nM	–	6000 to 60000 nM
CCN(CC)Cc1ccc(/C=C/c2n[nH]c3cc(Sc4c(F)cccc4C(=O)NC)ccc23)nc1 [Compound I-91, 2-({3-[(E)-2-{5-[(diethylamino)methyl]pyridin-2-yl}vinyl]-1H-indazol-6-yl}thio)-3-fluoro-N-methylbenzamide]	0.01 to 0.05	–	1 to 10 nM	–	6000 to 60000 nM
CCN(CC)Cc1ccc(/C=C/c2n[nH]c3cc(Sc4ccc(F)cc4C(=O)NC)ccc23)nc1 [Compound I-93, 2-({3-[(E)-2-{5-[(diethylamino)methyl]pyridin-2-yl}vinyl]-1H-indazol-6-yl}thio)-5-fluoro-N-methylbenzamide]	0.01 to 0.05	–	1 to 10 nM	–	6000 to 60000 nM
CNC(=O)c1ccc(F)cc1Sc1ccc2c(/C=C/c3ccc(CN4CCCC4)cn3)n[nH]c2c1 [Compound I-94, 4-fluoro-N-methyl-2-({3-[(E)-2-{5-[(pyrrolidin-1-yl)methyl]pyridin-2-yl}vinyl]-1H-indazol-6-yl}thio)benzamide]	0.01 to 0.05	–	1 to 10 nM	–	6000 to 60000 nM
CCN(CC)Cc1ccc(/C=C/c2n[nH]c3cc(Sc4ccccc4C(=O)NCCF)ccc23)nc1 [Compound I-98, 2-({3-[(E)-2-{5-(diethylamino)methyl]pyridin-2-ylvinyl]-1H-indazol-6-yl}thio)-N-(2-fluoroethyl)benzamide]	> 0.05	–	1 to 10 nM	–	6000 to 60000 nM
CCN(CC)Cc1ccc(/C=C/c2n[nH]c3cc(Sc4ccccc4C(=O)NCC(F)F)ccc23)nc1 [Compound I-99, 2-({3-[(E)-2-{5-[(diethylamino)methyl]pyridin-2-yl}vinyl]-1H-indazol-6-yl}thio)-N-(2,2-difluoroethyl)benzamide]	> 0.05	–	1 to 10 nM	–	6000 to 60000 nM
O=C(NC1CC1)c1cc(F)ccc1Sc1ccc2c(/C=C/c3cc(CCCN4CCCC4)ccn3)n[nH]c2c1 [Compound I-119, N-cyclopropyl-5-fluoro-2-({3-[(E)-2-{4-[3-(pyrrolidin-1-yl)propyl]pyridin-2-yl}vinyl]-1H-indazol-6-yl}thio)benzamide]	–	1 to 10 nM	≤ 1 nM	10 to 100 nM	> 60000 nM
